Entries after “also recorded” stand apart in the source; their conditions may differ.
System: advanced NSCLC patients with ALK or ROS1 rearrangement
Assay: Phase 1 dose-expansion phase: antitumor activity (RECIST 1.1, investigators)
Type: in vivo, human
Details: for objective response rate / intracranial objective response rate: Total; for intracranial objective response rate: Baseline measurable CNS metastasis
From the text: Patients continued treatment until documented disease progression, unacceptable toxicity, withdrawal of consent, the start of a new anticancer treatment, death, loss of follow-up, or end of the study (whichever occurred first). Patients were permitted to continue treatment after progression if they were still experiencing clinical benefit, at the discretion of the investigator. Patients performed imaging evaluation at baseline, with computed tomography or magnetic resonance imaging of the chest, abdomen, pelvis, and brain. In the dose-escalation phase, the first efficacy evaluation was done after 3-week continuous administration of WX-0593 and every 6 weeks thereafter. […] AEs were assessed in all patients throughout this study and graded per the National Cancer Institute Common Terminology Criteria for Adverse Events version 4.03. In the dose-expansion phase, the primary endpoint was ORR assessed by investigators. Other key secondary endpoints included PFS, DCR, time to progression (TTP), DOR, intracranial response, and safety. Additionally, overall survival (OS) was assessed as a prespecified exploratory endpoint. ORR was defined as the proportion of patients who had best overall response, including CR or PR. PFS was calculated from the date of the first dose of WX-0593 to the date of documented disease progression or death (whichever occurred first). DCR was defined as the proportion of patients who had best overall response, including CR, PR, or SD, with a duration of at least 12 weeks. TTP was calculated from the date when the first dose of WX-0593 was given to first documented disease progression. […] OS was calculated from the date when the first dose of WX-0593 was administered to the date of death from any cause. Safety analysis was performed in the SS, which was comprised of all patients treated with one dose of WX-0593 and with safety data recorded. Efficacy analysis was performed in the FAS, which was defined as all patients treated with at least one dose of WX-0593. The PK analysis set included all patients treated with at least one dose of WX-0593 and with at least one evaluable PK sample. […] Descriptive statistics were carried out to summarize patients’ baseline characteristics and safety. […] All time-to-event data (PFS, TTP, DOR, and OS) and their corresponding 95% CIs were estimated by Kaplan–Meier methods. PK parameter analyses were done with Phoenix WinNonlin version 8.0. All other statistical analyses were conducted using SAS version 9.4.

[1] = ROS1-positive patients, 120 mg (n=3)
[2] = ROS1-positive patients, 180 mg (n=6)
[3] = ROS1-positive patients, total (n=9)
[4] = baseline measurable or non-measurable brain metastasis
[5] = baseline measurable or non-measurable brain metastasis (n = 58)
[6] = both crizotinib and other ALK TKIs
[7] = crizotinib as the only ALK TKI treatment

`COc1cc(N2CCC3(CCN(C)CC3)CC2)ccc1Nc1ncc(Cl)c(Nc2ccccc2P(C)(C)=O)n1` [WX-0593] was tested, and the “DOR, median (95% CI)” value (ROS1-positive patients, 120 mg) was “NR (NR, NR)”, the “PFS, median (95% CI)” value (ROS1-positive patients, 120 mg) was 2.76 (1.35, 2.76) mo and the “TTP, median (95% CI)” value (ROS1-positive patients, 120 mg) was 2.76 (1.35, 2.76) mo. For the same compound, the “DCR (95% CI)” value [1] was 66.7% (9.4%, 99.2%), the “ORR (95% CI)” value [1] was 0 (0%, 70.8%) and the “PFS, number of events (%)” value [1] was 3 (100%). For the same compound, the “TTP (mo), n (%)” value [1] was 3 (100%), the “DOR, median (95% CI)” value (ROS1-positive patients, 180 mg) was “NR (NR, NR)” and the “PFS, median (95% CI)” value (ROS1-positive patients, 180 mg) was “NR (1.35, NR)”. The “TTP, median (95% CI)” value (ROS1-positive patients, 180 mg) was “NR (1.35, NR)”, the “DCR (95% CI)” value [2] was 66.7% (22.3%, 95.7%) and the “ORR (95% CI)” value [2] was 66.7% (22.3%, 95.7%). The “PFS, number of events (%)” value [2] was 2 (33.3%), the “TTP (mo), n (%)” value [2] was 2 (33.3%) and the “DOR, median (95% CI)” value (ROS1-positive patients, total) was “NR (NR, NR)”. The “PFS, median (95% CI)” value (ROS1-positive patients, total) was 2.76 (1.35, NR) mo, the “TTP, median (95% CI)” value (ROS1-positive patients, total) was 2.76 (1.35, NR) mo and the “ORR (95% CI)” value [3] was 44.4%. The “PFS, number of events (%)” value [3] was 5 (55.6%), the “TTP (mo), n (%)” value [3] was 5 (55.6%) and the ORR (ROS1-rearranged, crizotinib naive) was 80.0%. For the same compound, the “median PFS” value (ROS1 rearrangement, crizotinib-naive (n = 5)) was “not reached”, the objective response rate (ALK-rearranged patients) was 58.2% (53/91, 47.4-68.5%) and the objective response rate (ALK-rearranged patients, ALK TKI naive) was 76.3% (29/38, 59.8-88.6%). The objective response rate (ALK-rearranged patients, ALK TKI naive, chemotherapy naïve) was 85.0% (17/20, 62.1-96.8%), the objective response rate (ALK-rearranged patients, ALK TKI naive, received chemotherapy before) was 66.7% (12/18, 41.0-86.7%) and the objective response rate (ALK-rearranged patients, Crizotinib and other ALK TKIs) was 40.0% (2/5, 5.3-85.3%). The objective response rate (ALK-rearranged patients, Crizotinib only) was 45.7% (21/46, 30.9-61.0%), the objective response rate (ALK-rearranged patients, Other ALK TKIs) was 50.0% (1/2, 1.3-98.7%) and the objective response rate (Baseline CNS metastasis) was 22.4% (13/58, 12.5-35.3%). For the same compound, the objective response rate (Baseline CNS metastasis, ALK TKI naive) was 25.0% (5/20, 8.7-49.1%), the objective response rate (Baseline CNS metastasis, Crizotinib only) was 21.2% (7/33, 9.0-38.9%) and the objective response rate (Baseline CNS metastasis, Radiotherapy before) was 10.5% (2/19, 1.3-33.1%). For the same compound, the objective response rate (Baseline CNS metastasis, Radiotherapy naïve) was 28.2% (11/39, 15.0-44.9%), the “intracranial objective response rate” value was 46.7% (7/15, 21.3-73.4%) and the “intracranial objective response rate” value (ALK TKI naive) was 50.0% (2/4, 6.8-93.2%). For the same compound, the “intracranial objective response rate” value (Crizotinib only) was 50.0% (5/10, 18.7-81.3%), the “intracranial objective response rate” value (Radiotherapy before) was 28.6% (2/7, 3.7-71.0%) and the objective response rate (Prior ALK TKI treatment: Crizotinib and other ALK TKI) was 40.0% (2/5, 5.3-85.3%). The objective response rate (Prior ALK TKI treatment: Crizotinib only) was 42.0% (21/50, 28.2-56.8%), the objective response rate (ROS1-rearranged patients) was 44.4% (4/9, 13.7-78.8%) and the objective response rate (ROS1-rearranged patients, Crizotinib naive) was 80.0% (4/5, 28.4-99.5%). For the same compound, the objective response rate (ROS1-rearranged patients, Received Crizotinib before) was 0 (0/4, 0-60.2%), the objective response rate (dose expansion phase, Prior ALK TKI treatment: ALK TKI naive) was 76.2% (32/42, 60.5-87.9%) and the “DOR, median (95% CI)” value (all patients, 120 mg) was “NR (5.52, NR)”. The “PFS, median (95% CI)” value (all patients, 120 mg) was “NR (6.83, NR)”, the “TTP, median (95% CI)” value (all patients, 120 mg) was “NR (6.87, NR)” and the “DCR (95% CI)” value (all patients, 120 mg (n=50)) was 82.0% (68.6%, 91.4%). For the same compound, the “PFS, number of events (%)” value (all patients, 120 mg (n=50)) was 15 (30.0%), the “DOR, median (95% CI)” value (all patients, 180 mg) was “NR (5.49, NR)” and the “PFS, median (95% CI)” value (all patients, 180 mg) was “NR (NR, NR)”. For the same compound, the “TTP, median (95% CI)” value (all patients, 180 mg) was “NR (NR, NR)”, the “DCR (95% CI)” value (all patients, 180 mg (n=49)) was 85.7% (72.8%, 94.1%) and the “PFS, number of events (%)” value (all patients, 180 mg (n=49)) was 10 (20.4%). For the same compound, the “DOR, median (95% CI)” value (all patients, total) was “not reached (NR) (95% CI 5.52 months to NR); also recorded: NR (5.65, NR)”, the “PFS, median (95% CI)” value (all patients, total) was “not reached (95% CI 6.93 months to NR); also recorded: NR (6.93, NR)” and the “TTP, median (95% CI)” value (all patients, total) was “NR (6.93, NR)”. For the same compound, the “intracranial ORR” value (baseline measurable CNS metastasis, radiotherapy before) was 28.6%, the “intracranial ORR” value (baseline measurable CNS metastasis, radiotherapy naive) was 62.5% and the “intracranial ORR” value (baseline measurable brain metastasis) was 46.7%. The “intracranial ORR” value (baseline measurable brain metastasis, ALK TKI naive) was 50%, the “intracranial ORR” value (baseline measurable brain metastasis, crizotinib before) was 50% and the “intracranial ORR” value [4] was 22.4%. The “median PFS” value [4] was “not reached (95% CI 6.90 months to NR)”, the “patients with intracranial PR” value [5] was 7 and the “patients with intracranial complete remission (CR)” value [5] was 6. The DCR [6] was 100%, the ORR [6] was 40.0% and the “median PFS” value [6] was “not reached”. The DCR [7] was 76.0%, the ORR [7] was 42.0% and the “median PFS” value (previously only crizotinib) was 6.83 months.
